In patent US20040213742A1, “Monitoring marker” (priority 2002, published 2004):

Experiment: Intrauterine injection of pure N2O gas in anaesthetized pigs, N2O detected in expired breath
Format: in vivo
Conditions: anaesthetized pig
Method: Pure nitrous oxide (N2O) gas was injected into the uterine cavities of 2 anaesthetized pigs with open uterine tubes and surgically ligated uterine tubes, respectively. Said N2O was detected every second in the expired breath by means of a conventional N2O detector.
The results are shown in FIGS. 1 and 2, where FIG. 1 is a concentration versus time graph and FIG. 2 is a cumulative concentration versus time graph, the upper curves representing closed uterine tubes and the lower curves representing open uterine tubes.
Furthermore, there was a clear difference between the two curves versus time which enables a monitoring of fallopian tube abnormalities as claimed by the present invention.

SMILES: [N-]=[N+]=O [nitrous oxide]
- time to maximum concentration in the exhaled air (open uterine tubes, intrauterine injection of pure N2O gas): approximately 2 minutes
- maximum concentration in the exhaled air (open uterine tubes, pure N2O gas injected into uterine cavity, detected every second in expired breath): approximately 40 ppm
- maximum concentration in the exhaled air, closed tubes relative to open tubes (higher) (surgically ligated (closed) uterine tubes versus open uterine tubes): approximately 50%
